This passage reports IC50 results from patent US8912188B2, “Substituted quinoxaline carboxylic acids for the inhibition of PASK” (BioEnergenix, LLC, priority 2011, dated 2014).

Molecules are shown by their SMILES.

The target of the assay is T1, PASK (Invitrogen) (Homo sapiens, UniProt Q96RG2).
T1 construct: IC50 Kinase Domain; purchased Invitrogen
T1 sequence (Q96RG2 999-1251 limits assumed): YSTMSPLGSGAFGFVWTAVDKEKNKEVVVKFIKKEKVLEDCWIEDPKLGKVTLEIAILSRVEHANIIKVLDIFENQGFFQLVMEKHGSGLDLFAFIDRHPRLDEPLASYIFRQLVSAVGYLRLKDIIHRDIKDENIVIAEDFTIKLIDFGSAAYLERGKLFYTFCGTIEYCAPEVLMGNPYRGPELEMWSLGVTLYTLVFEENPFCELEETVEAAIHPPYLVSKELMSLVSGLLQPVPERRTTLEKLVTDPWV
The experiment in a line: PAS Kinase FRET Assay. The format is biochemical. The settings on record: PAS kinase TR-FRET assay (665 nm/615 nm), 2 hours at 25° C.; read-out: IC50 Kinase Domain. The source says:
Biochemical Assay for hPASK Activity
The aim of the FRET assay is to determine the inhibition potential of test compounds on targeted kinase. This assay platform provides a homogenous screening method for measuring kinase activity by quantitating the amount of phospho-substrate in solution following a kinase reaction.
In the presence of kinase and ATP, the Ulight-peptide is phosphorylated and captured by an anti-phospho-substrate antibody, which brings the Eu chelate donor and Ulight acceptor dyes into close proximity.
Titration of kinase at 1 mM ATP was achieved via the following protocol. […] The contents of the plate were incubated at RT for 1 h. The reaction was stopped by adding 5 μl of stop solution to each test well followed by mixing and incubation at RT for 10 minutes. 5 μl of detection mix (detection antibody diluted in detection buffer) was added; the contents of the plate were mixed and then incubated in the dark for 1 hour at RT. […] The results were graphed to calculate the EC50.
Titration of ATP at the EC50 concentration of kinase to determine ATP Km,app. was performed using the following method. […] The contents of the plate were and incubated at RT for 1 h. The reaction was stopped by adding 5 μl of stop solution to each test well followed by mixing and incubation at RT for 10 minutes. […] (detection antibody diluted in detection buffer) was added; the contents of the plate were mixed and then incubated in the dark for 1 hour at RT. […] The results were graphed to calculate the EC50 as the ATP Km,app.
Compound screening was done via the following method. 10 mM stock solution of test compound in DMSO was prepared by dissolving test compound in DMSO at RT for 1 hour, and then sonicating at 100% output for 8 minutes. If compound is not soluble under this condition, it was diluted to 3 mM. Kinase reaction buffer was prepared containing 10 mM MgCl2, 50 mM HEPES, 1 mM EGTA, 0.01% TWEEN-20, 2 mM DTT. […] As a positive control, 2.5 μl of positive compound was added to assay wells, and 2.5 μl of DMSO to assay wells as vehicle control. Kinase solution was prepared in reaction buffer at 2× final assay concentration. Kinase solution (5 μl) was added to each well of the assay plate. The substrate and ATP solution was prepared in kinase reaction buffer at 4× final assay concentration. The kinase reaction was started by adding 2.5 μl of substrate+ATP mix solution to each well of the assay plate. The plate is mixed on a plate shaker; then covered and allowed to react for 2 hours in the dark at 25° C. without shaking. The reaction was stopped by adding 5 μl of stop solution to each test well followed by mixing and incubation at RT for 10 minutes in the dark. 5 μl of detection mix (detection antibody diluted in detection buffer) was added; the contents of the plate were mixed and then incubated in the dark for 1 hour at RT.
As to `CC(C)N(C)c1nc2cc(C(=O)O)ccc2nc1-c1coc2ccccc12` [Example 1, 2-(Benzofuran-3-yl)-3-(isopropyl(methyl)amino)quinoxaline-6-carboxylic acid], the IC50 was less than 10 µM.
In the case of `CC(C)N(C)c1nc2cc(C(=O)O)ccc2nc1-c1cn[nH]c1` [Example 2, 3-(Isopropyl(methyl)amino)-2-(1H-pyrazol-4-yl)quinoxaline-6-carboxylic acid] it was less than 10 µM; in that of `CC(C)N(C)c1nc2cc(C(=O)O)ccc2nc1-c1ccc2cn[nH]c2c1` [Example 4, 2-(1H-Indazol-6-yl)-3-(isopropyl(methyl)amino)quinoxaline-6-carboxylic acid], less than 10 µM.
Take `CC(C)N(C)c1nc2cc(C(=O)O)ccc2nc1-c1ccc2cnn(C)c2c1` [Example 5, 3-(Isopropyl(methyl)amino)-2-(1-methyl-1H-indazol-6-yl)quinoxaline-6-carboxylic acid]: the IC50 was less than 10 µM.
For `COc1ccc2[nH]c(-c3nc4ccc(C(=O)O)cc4nc3N(C)C(C)C)cc2c1` [Example 6, 3-(Isopropyl(methyl)amino)-2-(5-methoxy-1H-indol-2-yl)quinoxaline-6-carboxylic acid], the concentration for half-maximal inhibition (IC50) is less than 10 µM.
Turning to `CC(C)N(C)c1nc2cc(C(=O)O)ccc2nc1-c1cncc(Br)c1` [Example 7, 2-(5-Bromopyridin-3-yl)-3-(isopropyl(methyl)amino)quinoxaline-6-carboxylic acid], the IC50 is less than 10 µM.
In the case of `CC(C)N(C)c1nc2cc(C(=O)O)ccc2nc1-c1ccc2[nH]ncc2c1` [Example 8, 2-(1H-Indazol-5-yl)-3-(isopropyl(methyl)amino)quinoxaline-6-carboxylic acid] it was less than 10 µM; in that of `CC(C)N(C)c1nc2cc(C(=O)O)ccc2nc1-c1c[nH]nc1C(F)(F)F` [Example 9, 3-(Isopropyl(methyl)amino)-2-(3-(trifluoromethyl)-1H-pyrazol-4-yl)quinoxaline-6-carboxylic acid], less than 10 µM; in that of `CC(C)N(C)c1nc2cc(C(=O)O)ccc2nc1-c1ccc(NC(=O)OC(C)(C)C)nc1` [Example 10, 2-(6-(tert-Butoxycarbonylamino)pyridin-3-yl)-3-(isopropyl(methyl)amino)quinoxaline-6-carboxylic acid], less than 10 µM.
With `CC(C)N(C)c1nc2cc(C(=O)O)ccc2nc1-c1ccnc(F)c1` [Example 11, 2-(2-Fluoropyridin-4-yl)-3-(isopropyl(methyl)amino)quinoxaline-6-carboxylic acid], the IC50 is less than 10 µM.
Take `CC(C)N(C)c1nc2cc(C(=O)O)ccc2nc1-c1ccc(N2CCCC2)nc1` [Example 12, 3-(Isopropyl(methyl)amino)-2-(6-(pyrrolidin-1-yl)pyridin-3-yl)quinoxaline-6-carboxylic acid]: the IC50 is more than 10 µM.
With `CC(C)N(C)c1nc2cc(C(=O)O)ccc2nc1-c1ccc(F)nc1` [Example 13, 2-(6-Fluoropyridin-3-yl)-3-(isopropyl(methyl)amino)quinoxaline-6-carboxylic acid], the IC50 is less than 10 µM.
As for `CC(C)N(C)c1nc2cc(C(=O)O)ccc2nc1-c1ccc(N)nc1` [Example 16, 2-(6-Aminopyridin-3-yl)-3-(isopropyl(methyl)amino)quinoxaline-6-carboxylic acid], the IC50 was less than 10 µM.
As to `COc1ccc2oc(-c3nc4ccc(C(=O)O)cc4nc3N(C)C(C)C)cc2c1` [Example 17, 3-(Isopropyl(methyl)amino)-2-(5-methoxybenzofuran-2-yl)quinoxaline-6-carboxylic acid], the IC50 is less than 10 µM.
Consider `CC(C)N(C)c1nc2cc(C(=O)O)ccc2nc1-c1ccc2c(c1)OCCCO2` [Example 20, 2-(3,4-Dihydro-2H-benzo[b][1,4]dioxepin-7-yl)-3-(isopropyl(methyl)amino)quinoxaline-6-carboxylic acid], for which the IC50 was less than 10 µM.
Turning to `CC(C)N(C)c1nc2cc(C(=O)O)ccc2nc1-c1cc2cc(F)ccc2s1` [Example 24, 2-(5-Fluorobenzo[b]thiophen-2-yl)-3-(isopropyl(methyl)amino)quinoxaline-6-carboxylic acid], the concentration for half-maximal inhibition (IC50) was less than 10 µM.
As for `CC(C)N(C)c1nc2cc(C(=O)O)ccc2nc1-c1ccc2c(cnn2C)c1` [Example 25, 3-(Isopropyl(methyl)amino)-2-(1-methyl-1H-indazol-5-yl)quinoxaline-6-carboxylic acid], the figure is less than 10 µM; as for `CCn1ncc2cc(-c3nc4ccc(C(=O)O)cc4nc3N(C)C(C)C)ccc21` [Example 26, 2-(1-Ethyl-1H-indazol-5-yl)-3-(isopropyl(methyl)amino)quinoxaline-6-carboxylic acid], less than 10 µM; as for `CCN(CC)c1nc2cc(C(=O)O)ccc2nc1-c1cc2ccccc2o1` [Example 27, 2-(1-Benzofuran-2-yl)-3-(diethylamino)quinoxaline-6-carboxylic acid], less than 10 µM.
For the compound `CN(c1nc2cc(C(=O)O)ccc2nc1-c1ccc2[nH]ncc2c1)C1CC1` [Example 29, 3-(Cyclopropyl(methyl)amino)-2-(1H-indazol-5-yl)quinoxaline-6-carboxylic acid], the IC50 is less than 10 µM.
For `CC(C)N(C)c1nc2cc(C(=O)O)ccc2nc1-c1ccc2occc2c1` [Example 30, 2-(1-Benzofuran-5-yl)-3-[methyl(propan-2-yl)amino]quinoxaline-6-carboxylic acid], the IC50 was less than 10 µM.
In the case of `CC(C)N(C)c1nc2cc(C(=O)O)ccc2nc1-c1cc2ccc(Cl)cc2o1` [Example 31, 2-(6-Chloro-1-benzofuran-2-yl)-3-[methyl(propan-2-yl)amino]quinoxaline-6-carboxylic acid], the IC50 is less than 10 µM.
As for `C[C@H]1CCCN1c1nc2cc(C(=O)O)ccc2nc1-c1cc2ccc(F)cc2o1` [Example 32, (S)-2-(6-Fluorobenzofuran-2-yl)-3-(2-methylpyrrolidin-1-yl)quinoxaline-6-carboxylic acid], the figure is less than 10 µM.
Take `CC(C)N(C)c1nc2cc(C(=O)O)ccc2nc1-c1cc2cc(F)c(F)cc2o1` [Example 33, 2-(5,6-Difluorobenzofuran-2-yl)-3-(isopropyl(methyl)amino)quinoxaline-6-carboxylic acid]: the IC50 is less than 10 µM.
For the compound `C[C@H]1CCCN1c1nc2cc(C(=O)O)ccc2nc1-c1ccc2c(c1)OC(F)(F)O2` [Example 34, (S)-2-(2,2-Difluorobenzo[d][1,3]dioxol-5-yl)-3-(2-methylpyrrolidin-1-yl)quinoxaline-6-carboxylic acid], the half-maximal inhibitory concentration (IC50) is less than 10 µM.
Take `O=C(O)c1ccc2nc(-c3ccc4[nH]ncc4c3)c(N3CCCCC3)nc2c1` [Example 35, 2-(1H-Indazol-5-yl)-3-(piperidin-1-yl)quinoxaline-6-carboxylic acid]: the concentration for half-maximal inhibition (IC50) was less than 10 µM.
As for `O=C(O)c1ccc2nc(-c3ccc4[nH]ncc4c3)c(N3CCCCCC3)nc2c1` [Example 36, 3-(Azepan-1-yl)-2-(1H-indazol-5-yl)quinoxaline-6-carboxylic acid], the figure is less than 10 µM; as for `O=C(O)c1ccc2nc(-c3ccc4[nH]ccc4c3)c(N3CCCCCC3)nc2c1` [Example 37, 3-(Azepan-1-yl)-2-(1H-indol-5-yl)quinoxaline-6-carboxylic acid], less than 10 µM; as for `CCN(CC)c1nc2cc(C(=O)O)ccc2nc1-c1ccc2[nH]ccc2c1` [Example 38, 3-(Diethylamino)-2-(1H-indol-5-yl)quinoxaline-6-carboxylic acid], less than 10 µM.
Regarding `O=C(O)c1ccc2nc(-c3cc4cc(F)ccc4o3)c(N3CCCCCC3)nc2c1` [Example 39, 3-(Azepan-1-yl)-2-(5-fluorobenzofuran-2-yl)quinoxaline-6-carboxylic acid], the IC50 was less than 10 µM.
`C[C@H]1CCCN1c1nc2cc(C(=O)O)ccc2nc1-c1ccc2[nH]ccc2c1` [Example 40, (S)-2-(1H-Indol-5-yl)-3-(2-methylpyrrolidin-1-yl)quinoxaline-6-carboxylic acid]: the IC50 is less than 10 µM.
For `C[C@H]1CCCN1c1nc2cc(C(=O)O)ccc2nc1-c1cc2cc(F)ccc2o1` [Example 41, (S)-2-(5-Fluorobenzofuran-2-yl)-3-(2-methylpyrrolidin-1-yl)quinoxaline-6-carboxylic acid], the IC50 is less than 10 µM.
